9 compounds from publication PMC5569447 (Iranian Journal of Basic Medical Sciences, 2017) can be followed below.

The structures appear in SMILES notation. Peptide text beside a SMILES is read from it.

For the experiment, the system named is Mtb strain H37Rv ATCC 27294. The settings on record: 24 h.
With `CC(C)[C@H](NC(=O)CN)C(=O)N1CCC[C@H]1C(=O)NCC(=O)O` [GVPG, glycine-valine-proline-glycine] (H-GVPG-OH), the “MABA MIC” value was found to be 200 µM. On to `N=C(N)NCCC[C@H](NC(=O)[C@@H]1CCCN1)C(=O)NCC(=O)O` [PRG] (H-Pro-Arg-Gly-OH), for which the “MABA MIC” value is greater than 800 µM. For `N=C(N)NCCC[C@H](NC(=O)[C@@H]1CCCN1)C(=O)N1CCC[C@H]1C(=O)O` [PRP] (H-Pro-Arg-Pro-OH), the “MABA MIC” value was greater than 800 µM. As for `CC(C)[C@H](NC(=O)[C@@H](NC(=O)[C@@H]1CCCN1)[C@@H](C)O)C(=O)O` [PTV] (H-Pro-Thr-Val-OH), the figure is greater than 800 µM; as for `C[C@@H](O)[C@H](NC(=O)[C@@H](N)CCC(N)=O)C(=O)N[C@@H](CCC(N)=O)C(=O)O` [QTQ] (H-Gln-Thr-Gln-OH), greater than 800 µM; as for `N=C(N)NCCC[C@H](NC(=O)[C@@H]1CCCN1C(=O)[C@@H](N)CCCNC(=N)N)C(=O)O` [RPR, arginine-proline-arginine] (H-Arg-Pro-Arg-OH), 200 µM. To `N[C@@H](CO)C(=O)NCC(=O)N1CCC[C@H]1C(=O)O` [SGP] (H-Ser-Gly-Pro-OH) belongs greater than 800 µM.

As for `N=C(N)NCCC[C@H](NC(=O)[C@@H]1CCCN1C(=O)[C@@H](N)CO)C(=O)O` [SPR] (H-Ser-Pro-Arg-OH), the “MABA MIC” value was greater than 800 µM.

For `N=C(N)NCCC[C@H](NC(=O)[C@@H](N)CO)C(=O)N1CCC[C@H]1C(=O)O` [SRP] (H-Ser-Arg-Pro-OH), the “MABA MIC” value is greater than 800 µM.
